Key:
[1] = system: Human airway basal cells grown in 3D; experiment: IL-13-driven goblet cell metaplasia in 3D bronchospheres, qPCR of cell type markers; type: cell-based
Description: (§1) Human bronchial epithelial (HBE) cells and culture media were obtained from Lonza. Air-liquid interface cultures using passage 2 (P2) cells were performed as previously described (Danahay, H. et al., American journal of physiology. Lung cellular and molecular physiology 282, L226-236 (2002)). For three-dimensional culturing of HBE cells, P1 cells were trypsinized and resuspended (30,000 cells/ml) in HBE differentiation media containing 5% growth factor-reduced Matrigel (BD Biosciences). 20 μl of suspension was plated in each well of a 384-well plate (Greiner) pre-coated with 10 μl of a 25% solution of Matrigel (BD Biosciences) in HBE differentiation media. Wells were fed or treated at day 2 and day 8 of culture by adding 30 μl of differentiation media containing the appropriate treatment. Three-dimensional cultures were analyzed at the time points indicated.
RNA was isolated from 3D bronchosphere cultures with Trizol (Invitrogen), using manufacturer's specifications. […] Quantitative PCR was performed on a ViiA7 Real-Time PCR System (Applied Biosystems), using 40 ng of cDNA per reaction with the following Taqman probes (Applied Biosystems): MUC5AC, Hs01365601_m1; MUC5B, Hs00861588_m1; FOXA3, Hs00270130_m1; FOXJ1, Hs00230964_m1; DNAI2, Hs01001544_m1; TP63, Hs00978340_m1; ITGA6, Hs01041011_m1; GAPDH, Hs99999905_m1; Muc5ac, Mm012718_m1; Foxj1, Mm012367279_m1; Trp63, Mm00495788_m1; Gapdh, Mm99999915_g1.
In order to understand if neutralizing Notch2 could prevent goblet cell metaplasia, a hallmark of several airway diseases including asthma, cystic fibrosis, and COPD, anti-Notch2 antibodies were tested for their effect on IL-13-driven goblet cell metaplasia in 3D bronchospheres. Human airway basal cells were grown in 3D in the presence of vehicle control or IgG, with or without 1 ng/ml IL-13, or increasing concentrations of α-N2 D3 or 59R5 antibodies together with 1 ng/ml of IL-13, and analyzed by qPCR for the expression levels of the indicated goblet cell markers (FIG. 5a), ciliated cell markers (FIG. 5b), and basal cell markers (FIG. 5c).

[2] = system: Human airway basal cells grown in 3D; experiment: 3D bronchosphere cultures treated with Notch receptor-specific blocking antibodies, qPCR of cell type markers; type: cell-based
Description: as §1
RNA was isolated from 3D bronchosphere cultures with Trizol (Invitrogen), using manufacturer's specifications. To isolate RNA from mouse tissue, approximately 20 mg of tissue was placed in a 1.5 ml eppendorf tube with 1 ml of Buffer RLT Plus (Qiagen). A 5 mm stainless steel bead (Qiagen) was added to the tube, and the tissue was sheared using a Tissue Lyser II (Qiagen). RNA from the sheared tissue was purified using the RNeasy Plus Mini Kit (Qiagen), using manufacturer's specifications. TaqMan Reverse Trascription Reagents (Invitrogen) were used to generate cDNA from 1 μg of total RNA. Quantitative PCR was performed on a ViiA7 Real-Time PCR System (Applied Biosystems), using 40 ng of cDNA per reaction with the following Taqman probes (Applied Biosystems): MUC5AC, Hs01365601_m1; MUC5B, Hs00861588_m1; FOXA3, Hs00270130_m1; FOXJ1, Hs00230964_m1; DNAI2, Hs01001544_m1; TP63, Hs00978340_m1; ITGA6, Hs01041011_m1; GAPDH, Hs99999905_m1; Muc5ac, Mm012718_m1; Foxj1, Mm012367279_m1; Trp63, Mm00495788_m1; Gapdh, Mm99999915_g1. […]

[3] = system: IL-13 driven goblet cell metaplasia; experiment: IL-13 mouse model, co-administration of anti-Notch2 antibodies; type: in vivo
Description: RNA was isolated from 3D bronchosphere cultures with Trizol (Invitrogen), using manufacturer's specifications. To isolate RNA from mouse tissue, approximately 20 mg of tissue was placed in a 1.5 ml eppendorf tube with 1 ml of Buffer RLT Plus (Qiagen). A 5 mm stainless steel bead (Qiagen) was added to the tube, and the tissue was sheared using a Tissue Lyser II (Qiagen). RNA from the sheared tissue was purified using the RNeasy Plus Mini Kit (Qiagen), using manufacturer's specifications. TaqMan Reverse Trascription Reagents (Invitrogen) were used to generate cDNA from 1 μg of total RNA. Quantitative PCR was performed on a ViiA7 Real-Time PCR System (Applied Biosystems), using 40 ng of cDNA per reaction with the following Taqman probes (Applied Biosystems): MUC5AC, Hs01365601_m1; MUC5B, Hs00861588_m1; FOXA3, Hs00270130_m1; FOXJ1, Hs00230964_m1; DNAI2, Hs01001544_m1; TP63, Hs00978340_m1; ITGA6, Hs01041011_m1; GAPDH, Hs99999905_m1; Muc5ac, Mm012718_m1; Foxj1, Mm012367279_m1; Trp63, Mm00495788_m1; Gapdh, Mm99999915_g1.
Female Balb/c mice (20-25 g) were obtained from Charles River (Morgate, UK). Mice were housed under specific pathogen free conditions and were provided with food and water ad libitum. Experiments were performed in accordance with the UK Animals Scientific Procedures Act 1986.
Mice received 0.5 μg of recombinant mouse IL-13 (Ebiosciences, UK) or phosphate-buffered saline (PBS) intranasally on 3 consecutive (days 1, 2, 3). Mice received either 20 mg/kg neutralizing antibody against Notch2 (α-N2 D3 or α-N2 59R5) or control IgG, or PBS intraperitoneally 2 hours before intranasal challenge with either IL-13 or PBS, on days 1 and 3 only. Mice were euthanized 24 hours after the final IL-13 administration. The left lungs were excised, inflated with 10% neutral buffered formalin (NBF) and preserved in NBF. Lungs were embedded in paraffin wax and lung sections were obtained for each animal. Sections were stained with Periodic Acid-Schiff (PAS) stain for mucus.
PAS positive staining was quantified in lung sections using Definiens Image Analysis software. Two distinct lung sections were analyzed per mouse and the total area of PAS positive staining within the sections was determined. The PAS positive staining was normalized to the area of tissue analyzed and represented as ‘Relative Area PAS Positive Mucus (%)’.
Data are expressed as mean±SEM. Statistical significance was determined using a parametric one way ANOVA and Dunnetts post-test. GraphPad Prism (version 5.04) was used to generate graphs and perform statistical analysis. ***p<0.001 denotes statistically significant difference from relevant isotype control group.

[4] = system: Human bronchial epithelial (HBE) cells; experiment: IL-13-driven goblet cell metaplasia in ALI cultures; type: cell-based; conditions: ALI cultures (results not shown)
Description: as §1, with “Wells were fed or treated at day 2 and day 8 of culture by adding 30 μl of differentiation media containing the appropriate treatment.” left out
Immunofluorescence of HBEC bronchospheres was performed as described previously for MCF10A cysts (Debnath, J. et al., Methods 30, 256-268 (2003) with the following modifications. After incubation with fluorescence-conjugated secondary antibodies, DNA was stained with a 1:1 mix of PBS and ProLong gold antifade containing DAPI. Confocal microscopy was performed at room temperature on a microscope (Zeiss LSM510 Meta) using an EC Plan-Neofluar 10×/0.30 dry objective (Zeiss), an EC Plan-Neofluor 20×/0.5 dry objective (Zeiss), a C-Apochromat 40×/1.2 W corr (Zeiss), or a C-Apochromat 63×/1.2 W Corr objective (Zeiss). […]

59R5: anti-Notch2 antagonist IgG1 antibody, heavy chain SEQ ID NO: 5, light chain SEQ ID NO: 6
IL-13-driven goblet cell metaplasia (expression of goblet cell markers MUC5AC, MUC5B and FOX3A) ([1]; 1 ng/ml IL-13, increasing antibody concentrations, qPCR, FIG. 5a): completely inhibited
ciliated cells function (expression of ciliated cell markers FOXJ1 and DNAI2) ([1]; 1 ng/ml IL-13, qPCR, FIG. 5b): partially restored
effect on basal cells markers p63 and ITGA6 ([1]; 1 ng/ml IL-13, qPCR, FIG. 5c): No effect
effect on basal cell markers p63 and ITGA6 ([2]; FIG. 4c): Neither antibody showed any significant effect
goblet cell formation: expression of goblet cell markers MUC5AC, MUC5B and FOXA3 ([2]; compared with IgG control or anti-Notch1 / anti-Notch3 antibodies, FIG. 4a): decreased
ciliated cell formation: expression of ciliated cells markers FOXJ1 and DNAI2 ([2]; compared with IgG control or anti-Notch1 / anti-Notch3 antibodies, FIG. 4b): increasing
effect on basal cell marker Trp63, qPCR of whole lung tissue ([3]; 20 mg/kg i.p. days 1 and 3, FIG. 6e): no effect
ciliated cell marker Foxj1, qPCR of whole lung tissue ([3]; 20 mg/kg i.p. days 1 and 3, FIG. 6d): concomitant increase
Muc5ac expression levels, qPCR of whole lung tissue RNA ([3]; 20 mg/kg i.p. days 1 and 3, confirms reduced goblet cell metaplasia, FIG. 6c): verified this observation
IL-13 driven goblet cell metaplasia (PAS staining of lung sections) ([3]; Balb/c mice, 20 mg/kg antibody i.p. 2 hours before intranasal IL-13, days 1 and 3, FIGS. 6a, 6b): completely blocked
IL-13-driven goblet cell metaplasia [4]: completely inhibited
